Data: US6815546B2, “Analogues of camptothecin, their use as medicaments and the pharmaceutical compositions containing them” (Societe de Recherches et d'Applications Scientifiques …, priority 1995, dated 2004)

Experiments:
Assay type in all cases: cell-based
[1] = system: L1210 (mouse lymphocytic leukemia); test: Test on cell proliferation (MTT test), L1210; conditions: 48 hours
Procedure: (§1) a. Eight tumoral cell lines are used in this study: L1210 (mouse lymphocytic leukemia), HCT15 and LOVO (cell lines of human colon adenocarcinoma), A549 (human lung carcinoma), A172, U373 et U87 (human glioblastoma). All these lines are obtained from the American Type Culture Collection (ATCC), Rockville, Md. The L1210 cell cultures in suspension are cultured in Dulbecco's modified Eagle's medium (DMEM) (BioWhitaker, Verviers, Belgium) together with 10% of foetal calf serum inactivated by heating, 2 mM of glutamine, 50 μg/ml of penicillin and 50 μg/ml of streptomycin. The HT29 cells are cultured in mono-layer cultures in a McCoy 5a medium (Gibco, Paisley, United Kingdom) together with 10% of foetal calf serum inactivated by heat plus 2 mM of glutamine and 50 μg/ml of gentamycin. The other cells are cultured in an Earle's modified essential medium (EMEM; Gibco, Paisley, United Kingdom) together with 5% foetal calf serum inactivated by heat, 2 mM of glutamine, 50 U/ml of penicillin and 50 μg/ml of streptomycin. All the cell lines are cultured at 37° C. in a humidified atmosphere containing 95% air and 5% CO2.
(§2) Inhibition of the tumor cell line proliferation is determined using an MTT test. 1500 L1210 cells in a culture medium (according to the needs of the cell medium) are seeded in a well of a micro-well plate (tissue culture level: 96 wells, flat bottom) 24 hours before treatment with the compounds to be tested. For these dose-response studies, the cells are incubated with each of the compounds to be tested or their corresponding solvent (controls) for 48 hours over a final concentration range of 1.10^−10 to 1.10^−4 M. All the compounds are dissolved just before use in dimethylsulphoxide (DMSO) at a concentration of 50 mM. Other dilutions of the medicaments are carried out in the culture medium. The final concentration of DMSO never exceeds 0.2% (v/v). As controls, the solutions of medicaments are replaced with the solvent which is diluted successively in the same way as the compounds to be tested.
(§3) After the incubation period, the labeling reagent MTT (3-[4,5-dimethylthiazol-2-yl]-2,5-diphenyltetrazolium bromide; Thiazol blue, Sigma M 565, Sigma, St Louis, Mo.) is added at a final concentration of 0.3 mg/ml to each well. The cells are incubated for 4 hours at 37° C. in a humidified atmosphere. This stage allows the mitochondrial dehydrogenase of the living cells to convert the yellow tetrazolium salt MTT into crimson formazan crystals. The supernatant part is eliminated and the formazan crystals formed are solubilized with DMSO. The resultant coloured solution is quantified by absorbance at 570 nm by using a multi-cuvette scanning spectrophotometer. The data concerning the proliferation is expressed as a percentage of living cells in the treated wells, divided by the living cells in the controls. Each point represents the average of three independent experiments, each experiment represents six determinations.
(§4) The results are expressed as percentages of the calculated proliferation by the optical density (OD) of the cells treated with a medicament divided by the OD of the control cells (cells treated with DMSO). As represented in Table II, the compounds to be tested have inhibited the proliferation of cells in a dose-dependent manner.

[2] = system: HCT15 (cell lines of human colon adenocarcinoma); test: Test on cell proliferation (MTT test), HCT15; conditions: 72 hours
Procedure: as §1, §2, §3
(§5) For the other cell lines (HCT15, LOVO, A549, A172, U373, U87), 1000 to 2000 cells are seeded in the well of a micro-well plate 24 hours before medicinal treatment. […]
as §4

[3] = system: LOVO (cell lines of human colon adenocarcinoma); test: Test on cell proliferation (MTT test), LOVO; conditions: 72 hours
Procedure: as §1, §2, §3, §5, §4

[4] = system: A549 (human lung carcinoma); test: Test on cell proliferation (MTT test), A549; conditions: 72 hours
Procedure: as §1, §2, §3, §5, §4

[5] = system: A172 (human glioblastoma); test: Test on cell proliferation (MTT test), A172; conditions: 72 hours
Procedure: as §1, §2, §3, §5, §4

[6] = system: U373 (human glioblastoma); test: Test on cell proliferation (MTT test), U373; conditions: 72 hours
Procedure: as §1, §2, §3, §5, §4

U87 (human glioblastoma) = test: Test on cell proliferation (MTT test), U87; conditions: 72 hours
Procedure: as §1, §2, §3, §5, §4

SMILES: CCC1(O)CC(=O)OCc2c1cc1n(c2=O)Cc2cc3cc4c(cc3nc2-1)OCCO4 (stereo not shown) [Example 11, 8-ethyl-8-hydroxy-2,3,8,9,12,15-hexahydro-10H,13H-[1,4]dioxino [2,3-g]oxepino[3′,4′:6,7]indolizino[1,2-b]quinoline-10,13-dione]
- PERCENTAGE OF CELL PROLIFERATION ([1]; 0.1 nM): 91.99%
- PERCENTAGE OF CELL PROLIFERATION ([1]; 1 nM): 81.37%
- PERCENTAGE OF CELL PROLIFERATION ([1]; 10 nM): 23.16%
- PERCENTAGE OF CELL PROLIFERATION ([1]; 100 nM): 16.83%
- PERCENTAGE OF CELL PROLIFERATION ([1]; 1 000 nM): 5.59%
- PERCENTAGE OF CELL PROLIFERATION ([1]; 10 000 nM): 1.45%
- PERCENTAGE OF CELL PROLIFERATION ([1]; 100 000 nM): 1.04%
- PERCENTAGE OF CELL PROLIFERATION ([2]; 0.1 nM): 71.00%
- PERCENTAGE OF CELL PROLIFERATION ([2]; 1 nM): 63.00%
- PERCENTAGE OF CELL PROLIFERATION ([2]; 10 nM): 45.00%
- PERCENTAGE OF CELL PROLIFERATION ([2]; 100 nM): 23.00%
- PERCENTAGE OF CELL PROLIFERATION ([2]; 1 000 nM): 12.00%
- PERCENTAGE OF CELL PROLIFERATION ([2]; 10 000 nM): 9.00%
- PERCENTAGE OF CELL PROLIFERATION ([2]; 100 000 nM): 9.00%
- PERCENTAGE OF CELL PROLIFERATION ([3]; 0.1 nM): 66.00%
- PERCENTAGE OF CELL PROLIFERATION ([3]; 1 nM): 42.00%
- PERCENTAGE OF CELL PROLIFERATION ([3]; 10 nM): 29.00%
- PERCENTAGE OF CELL PROLIFERATION ([3]; 100 nM): 21.00%
- PERCENTAGE OF CELL PROLIFERATION ([3]; 1 000 nM): 8.00%
- PERCENTAGE OF CELL PROLIFERATION ([3]; 10 000 nM): 3.00%
- PERCENTAGE OF CELL PROLIFERATION ([3]; 100 000 nM): 3.00%
- PERCENTAGE OF CELL PROLIFERATION ([4]; 0.1 nM): 82.00%
- PERCENTAGE OF CELL PROLIFERATION ([4]; 1 nM): 44.00%
- PERCENTAGE OF CELL PROLIFERATION ([4]; 10 nM): 29.00%
- PERCENTAGE OF CELL PROLIFERATION ([4]; 100 nM): 26.00%
- PERCENTAGE OF CELL PROLIFERATION ([4]; 1 000 nM): 4.00%
- PERCENTAGE OF CELL PROLIFERATION ([4]; 10 000 nM): 3.00%
- PERCENTAGE OF CELL PROLIFERATION ([4]; 100 000 nM): 2.00%
- PERCENTAGE OF CELL PROLIFERATION ([5]; 0.1 nM): 95.00%
- PERCENTAGE OF CELL PROLIFERATION ([5]; 1 nM): 53.00%
- PERCENTAGE OF CELL PROLIFERATION ([5]; 10 nM): 47.00%
- PERCENTAGE OF CELL PROLIFERATION ([5]; 100 nM): 39.00%
- PERCENTAGE OF CELL PROLIFERATION ([5]; 1 000 nM): 12.00%
- PERCENTAGE OF CELL PROLIFERATION ([5]; 10 000 nM): 3.00%
- PERCENTAGE OF CELL PROLIFERATION ([5]; 100 000 nM): 2.00%
- PERCENTAGE OF CELL PROLIFERATION ([6]; 0.1 nM): 50.00%
- PERCENTAGE OF CELL PROLIFERATION ([6]; 1 nM): 30.00%
- PERCENTAGE OF CELL PROLIFERATION ([6]; 10 nM): 25.00%
- PERCENTAGE OF CELL PROLIFERATION ([6]; 100 nM): 8.00%
- PERCENTAGE OF CELL PROLIFERATION ([6]; 1 000 nM): 2.00%
- PERCENTAGE OF CELL PROLIFERATION ([6]; 10 000 nM): 1.00%
- PERCENTAGE OF CELL PROLIFERATION ([6]; 100 000 nM): 2.00%
- PERCENTAGE OF CELL PROLIFERATION (U87 (human glioblastoma); 0.1 nM): 40.00%
- PERCENTAGE OF CELL PROLIFERATION (U87 (human glioblastoma); 1 nM): 21.00%
- PERCENTAGE OF CELL PROLIFERATION (U87 (human glioblastoma); 10 nM): 12.00%
- PERCENTAGE OF CELL PROLIFERATION (U87 (human glioblastoma); 100 nM): 6.00%
- PERCENTAGE OF CELL PROLIFERATION (U87 (human glioblastoma); 1 000 nM): 1.00%
- PERCENTAGE OF CELL PROLIFERATION (U87 (human glioblastoma); 10 000 nM): 1.00%
- PERCENTAGE OF CELL PROLIFERATION (U87 (human glioblastoma); 100 000 nM): 1.00%
